In US20240156959A1, “COMBINATION THERAPY FOR THE TREATMENT OF CANCER COMPRISING AN ANTl-EGFR ANTIBODY AND AN AXL-INHIBITOR” (Yeda Research and Development Co. Ltd., priority 2021, published 2024):

Key:
RAD18 = RAD18 immunoprecipitation and immunoblotting in DTPs; type: cell-based; settings: erlotinib 1 μM, 2-9 days
Procedure: FIGS. 3A-G. AXL and RAD18 are functionally linked. (B) PC9 cells were treated with erlotinib (1 μM), or DMSO and RNA was subjected to real time PCR. (C) Transcriptomic data corresponding to 506 patients with lung adenocarcinoma were used to generate an expression correlogram of 19 DNA damage response genes. Pearson correlation coefficients are indicated in each square (see scale code). (D) Parental and RAD18 knockout cells were treated for 9 days with a TKI. Fractions of surviving DTPs are shown. (E) Naïve and RAD18-knockout cells were probed using anti-AXL or anti-RAD18 antibodies. Thereafter, the cells were processed for proximity ligation analysis (red signals). Representative images and PLA quantification are shown. Bar, 20 μm. (F) Cells were treated for 2-9 days with erlotinib (1 μM) or H2O2 (40 μM). Extracts were subjected to immunoprecipitation with an anti-RAD18 or control antibody and immunoprecipitates were immunoblotted. (G) Naïve and AXL-overexpressing cells, along with PC9ER cells, were treated with erlotinib (1 μM). Genomic DNA was isolated after 9 days and the T790M point mutation was determined using digital PCR. Shown are fraction of T790M in cellular DNA. Data are means ±SEM (4 experiments). […]

PC9 tumors = assay: Whole exome sequencing, untreated vs TKI-treated relapsing tumors; type: in vivo, mice
Procedure: (§1) Whole exome sequencing: Genomic DNA was isolated using PureLink™ Genomic DNA Mini Kit (Cat# K182002). The qualtiy of the DNA was checked by agarose gel ecltrophoresis and Qubit dsDNA HS Assay kit (Thermo Fisher Scientific). Exome sequencing libraries were prepared according to the manufacturer's instructions (Twist Human core exome kit+RefSeq Panel). Input gDNA (50 ng) from each sample was processed for enzymatic fragmentation, subsequent end repair, and dA-tailing to generate dA-tailed DNA fragments. Twist Universal Adapters were ligated to the dA-tailed DNA fragments, and purified to generate gDNA libraries ready for index introduction through amplification. A gDNA library adapted with Twist CDI primers was amplified and purified. The quality of the amplified library was confirmed using capillary electrophoresis (Bioanalyzer, Agilent). Prior to hybridization, the volume of each library was adjusted using the respective concentration of each Amplified Indexed Library. Ten libraries were multiplexed by 150 ng to give a total mass of 1500 ng. The pre-hybridization solution containing library, probes, RefSeq Panel and blockers was dried using a SpeedVac system and low heat. 0.020 ml of the fast hybridization mix was added to the dried pre-hybridization solution, and then 0.030 ml hybridization enhancer was added on top of the pre-hybridization solution. The mixture was incubated for 5 min at 95° C. and later heated for 2 hours at 60° C. in a thermal cycler (Fast Hybridization). Streptavidin Binding Beads (100 μl) were washed three times with 0.2 ml Fast Binding Buffer and re-suspended in 0.2 ml binding buffer. The hybridization mixture was added to the bead suspension and incubated for 30 min at RT with mixing. The beads were washed once, preheated in Fast Wash Buffer 1 for 5 min at 70° C., and three times with 0.2 ml of Wash Buffer2 for 5min at 48° C. DNA was eluted with 0.045 ml nuclease-free water (Streptavidin Binding Bead slurry). The captured library was amplified using PCR to enrich for fragments. The quality of the amplified libraries was verified by means of automated electrophoresis (Tapestation, Agilent). […]
(§2) Alignment and variant calling: Sequence QC was done through FastqQC 0.11.5 (Andrews 2015). Reads were mapped to human reference genome sequence (hg19; NCBI GRCh37) using bwa 0.7.12 (H. Li and Durbin 2009). […]
(§3) Animal experiments: All animal studies were approved by our institutional board and they were performed in accordance with the guidelines of the Institutional Animal Care and Use Committee (IACUC). […] Tumor volume was estimated using vernier caliper measurements of the longest axis, a/mm, and the perpendicular axis, b/mm Volumes were calculated in accordance with the equation V=(4 π/3)×(a/2)^2×(b/2). […]

[1] = test system: AXL-overexpressing tumors; assay: as above; type: in vivo, mice
Procedure: as §1, §2, §3

AXL = assay: Re-analysis of AXL mRNA levels in a published patient dataset; type: in vivo; settings: 23 patients, specimens prior to and after treatment, p<0.05
Excerpt: FIGS. 1A-G: Upregulation of AXL is essential for resistance and tolerance. (A) PC9 cells (2×10^6) were subcutaneously implanted in nude mice. […] Tumor volumes are presented (average ±SEM). (B) 3-4 mice from each group presented in A were euthanized when tumors reached 1,500 mm 3 Tumors were extracted and subjected to immunoblotting. Tubulin (TUB) served as the loading control. (C and D) AXL-overexpressing (C) and AXL-knockout PC9 cells (2×10^6, D), along with naïve cells, were subcutaneously implanted in mice. When tumors became palpable, mice were randomized and treated as in A. (E) Data were re-analyzed for AXL mRNA levels in 23 patients with EGFR+NSCLC. Specimens (total=53) were collected at several time points, prior to and after treatment with osimertinib. (F and G) AXL-overexpressing (OX; F) or AXL-knockout PC9 cells (KO; G), along with naïve cells, were untreated or treated with TKIs (1 or 3 μM). Drugs and media were refreshed on day 3 and 6. On day 9, remaining cells (DTPs) were fixed, stained and quantified. Averages±S.D. (triplicates) are shown.

Structure (SMILES)	ubiquitination of PCNA (RAD18)	ubiquitination of RAD18 (RAD18)	increase in base alterations in relapsing tumors (PC9 tumors) [fold]	increase in base alterations in relapsing tumors [1] [fold]	AXL mRNA levels in EGFR tumors of patients (AXL)
C#Cc1cccc(Nc2ncnc3cc(OCCOC)c(OCCOC)cc23)c1 [erlotinib]	increased ubiquitination of PCNA	reduced ubiquitination of RAD18	2.31	2.42	–
C=CC(=O)Nc1cc(Nc2nccc(-c3cn(C)c4ccccc34)n2)c(OC)cc1N(C)CCN(C)C [osimertinib]	–	–	2.37	2.52	AXL up-regulation
